Earlier results, collected in article PMC3649970, “A Unique Spumavirus Gag N-terminal Domain with Functional Properties of Orthoretroviral Matrix and Capsid” (PLoS Pathogens, 2013).

Test system: equivalent Gag-NtD (FFV)
Conditions: FFV Env leader peptide with FFV Gag-NtD; ref [29]; cited from earlier work
From the text: In the structure, residues 7–16 of the Env leader peptide comprise the amphipathic α-helix bound in the Env binding site of the Gag-NtD and residues 1–6 provide intramolecular hydrogen bonding that stabilises the helical conformation. […] Therefore, the hydrophobic interface observed in the structure likely represents the complete interaction between the leader peptide and FV Gag. The apolar ch ...

Substance: residues 1–30 of the FFV Env leader peptide: residues 1–30 of the FFV Env leader peptide (MEQEHVMTLKEWMEWNAHKQLQKLQSTHPE; leader peptide; UniProt O56861 1-30, looked up, fragment)
- equilibrium association constant: 65000 M⁻¹
